pIC50: −log10 of the molar value.
These compounds were tested against T1, recombinant human FLAP protein (Homo sapiens, UniProt P20292) (assay: FLAP binding assay, Scintillation Proximity Assay, displacement of [125I]L-691,831). Conditions: read-out: hFLAP binding IC50.
T1 construct: made in house; host or cells: Sf9 insect cells (100,000 x g membrane pellet)
T1 sequence (P20292 1-161): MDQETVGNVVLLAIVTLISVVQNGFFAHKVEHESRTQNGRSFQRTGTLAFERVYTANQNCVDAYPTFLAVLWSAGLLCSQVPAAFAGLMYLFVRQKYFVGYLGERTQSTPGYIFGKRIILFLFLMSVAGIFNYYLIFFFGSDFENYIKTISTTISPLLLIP
Description: Compounds are assessed for the ability to bind to FLAP in a binding assay that measures compound-specific displacement of an iodinated (^1251) FLAP inhibitor via a Scintillation Proximity Assay format (adapted from S. Charleson et al., Mol. Pharmacol., 1992, 41, 873-879).
Cell pellets produced from sf9 insect cells expressing recombinant human FLAP protein are resuspended in buffer A [15 mM Tris-HCl (pH 7.5), 2 mM MgCl2, 0.3 mM EDTA, 1 mM PMSF]. The cells are lysed with a Dounce homogenizer and the material is centrifuged at 10,000×g for 10 minutes. The supernatant is then collected and centrifuged at 100,000×g for 60 minutes. To prepare membrane protein for an assay, an aliquot of the 100,000×g pellet is resuspended in 1 ml of buffer A, Dounce homogenized, and finally subjected to polytron mixing (30 seconds). Membrane protein (25 μl, 5 μg) is mixed with WGA SPA beads (Amersham) and stirred for 1 h. To an assay plate (Perkin Elmer FlexiPlate) is added 25 μl of test compound prepared in Binding buffer [100 mM Tris (pH 7.5), 140 mM NaCl, 5% glycerol, 2 mM EDTA, 0.5 mM TCEP, 0.05% Tween 20], 25 μl of [^125I]L-691,831 (an iodinated analog of MK-591, Charleson et al. Mol. Pharmacol., 41, 873-879, 1992) and finally 50 μl of the bead/protein mixture. (final concentrations: beads, 200 μg/well; protein, 5 μg/well; [^125I] probe, 0 08 nM/well (17 nCi/well). The plates are shaken for 2 h before reading on a Microbeta plate reader. Non-specific binding is determined by the addition of 10 μM cold L-691,831 compound.

| SMILES | pIC50 |
| --- | --- |
| CC(C)(C)C(=O)c1c(CC(C)(C)C(=O)O)c(C(=O)c2ccc(Cl)cc2)n2ccc(OCc3ncccn3)cc12 [3-{3-[(4-chlorophenyl)carbonyl]-1-(2,2-dimethylpropanoyl)-7-(pyrimidin-2-ylmethoxy)indolizin-2-yl}-2,2-dimethylpropanoic acid] | 7.19 |
| COc1cncc(-c2ccc(C(=O)c3c(CC(C)(C)C(=O)O)c(C(=O)C(C)(C)C)c4cc(OCc5ccccn5)ccn34)cc2)c1 [3-[1-(2,2-dimethylpropanoyl)-3-{[4-(5-methoxypyridin-3-yl)phenyl]carbonyl}-7-(pyridin-2-ylmethoxy)indolizin-2-yl]-2,2-dimethylpropanoic acid] | 7.66 |
| CC(C)(C)CC(=O)c1c(CC(C)(C)C(=O)O)c(C(=O)c2ccc(Cl)cc2)n2ccc(OCc3ccc4ccccc4n3)cc12 [3-{3-[(4-chlorophenyl)carbonyl]-1-(3,3-dimethylbutanoyl)-7-(quinolin-2-ylmethoxy)indolizin-2-yl}-2,2-dimethylpropanoic acid] | 7.07 |
| CCCC(Cc1c(C(=O)C(C)(C)C)c2cc(OCc3cccc(C)n3)ccn2c1C(=O)c1ccc(OC)cc1)C(=O)O (stereo not drawn) [2-({1-(2,2-dimethylpropanoyl)-3-[(4-methoxyphenyl)carbonyl]-7-[(6-methylpyridin-2-yl)methoxy]indolizin-2-yl}methyl)pentanoic acid] | 8.52 |
| CC(C)(C)C(=O)c1c(CC(C)(C)C(=O)O)c(C(=O)c2ccc(Cl)cc2)n2ccc(OCc3ccccn3)cc12 [3-{3-[(4-chlorophenyl)carbonyl]-1-(2,2-dimethylpropanoyl)-7-(pyridin-2-ylmethoxy)indolizin-2-yl}-2,2-dimethylpropanoic acid] | 7.36 |
| Cc1nc(COc2ccc3c(C(=O)c4ccc(Cl)cc4)c(CC(C)(C)C(=O)O)c(C(=O)C(C)(C)C)n3c2)cs1 [3-{1-[(4-chlorophenyl)carbonyl]-3-(2,2-dimethylpropanoyl)-6-[(2-methyl-1,3-thiazol-4-yl)methoxy]indolizin-2-yl}-2,2-dimethylpropanoic acid] | 7.42 |
| COc1ccc(C(=O)c2c(CC(C)(C)C(=O)O)c(C(=O)C(C)(C)C)c3cc(OCc4ccc5ccccc5n4)ccn23)cc1 [3-[1-(2,2-dimethylpropanoyl)-3-[(4-methoxyphenyl)carbonyl]-7-(quinolin-2-ylmethoxy)indolizin-2-yl]-2,2-dimethylpropanoic acid] | 9.00 |
| Cc1nc(COc2ccn3c(C(=O)c4cc(Cl)cc(Cl)c4)c(CC(C)(C)C(=O)O)c(C(=O)C(C)(C)C)c3c2)cs1 [3-{3-[(3,5-dichlorophenyl)carbonyl]-1-(2,2-dimethylpropanoyl)-7-[(2-methyl-1,3-thiazol-4-yl)methoxy]indolizin-2-yl}-2,2-dimethylpropanoic acid] | 9.00 |
| CCC(C)(Cc1c(C(=O)C(C)(C)C)c2cc(OCc3cccc(C)n3)ccn2c1C(=O)c1ccc(OC)cc1)C(=O)O (stereo not drawn) [2-({1-(2,2-dimethylpropanoyl)-3-[(4-methoxyphenyl)carbonyl]-7-[(6-methylpyridin-2-yl)methoxy]indolizin-2-yl}methyl)-2-methylbutanoic acid] | 8.70 |
| Cc1nc(COc2ccn3c(C(=O)c4ccc(Cl)cc4)c(CC(C)(C)C(=O)O)c(C(=O)C(C)(C)C)c3c2)cs1 [3-{3-[(4-chlorophenyl)carbonyl]-1-(2,2-dimethylpropanoyl)-7-[(2-methyl-1,3-thiazol-4-yl)methoxy]indolizin-2-yl}-2,2-dimethylpropanoic acid] | 7.74 |
| COc1cccc(COc2ccn3c(C(=O)c4ccc(Cl)cc4)c(CC(C)(C)C(=O)O)c(C(=O)C(C)(C)C)c3c2)n1 [3-{3-[(4-chlorophenyl)carbonyl]-1-(2,2-dimethylpropanoyl)-7-[(6-methoxypyridin-2-yl)methoxy]indolizin-2-yl}-2,2-dimethylpropanoic acid] | 8.10 |
| COc1ccc(C(=O)c2c(CC(C)(C)C(=O)O)c(C(=O)C(C)(C)C)c3cc(OCc4nc(C)cs4)ccn23)cc1 [3-{1-(2,2-dimethylpropanoyl)-3-[(4-methoxyphenyl)carbonyl]-7-[(4-methyl-1,3-thiazol-2-yl)methoxy]indolizin-2-yl}-2,2-dimethylpropanoic acid] | 8.52 |
| COc1ccnc(COc2ccn3c(C(=O)c4ccc(Cl)cc4)c(CC(C)(C)C(=O)O)c(C(=O)C(C)(C)C)c3c2)c1 [3-{3-[(4-chlorophenyl)carbonyl]-1-(2,2-dimethylpropanoyl)-7-[(4-methoxypyridin-2-yl)methoxy]indolizin-2-yl}-2,2-dimethylpropanoic acid] | 8.10 |
| COc1ccc(C(=O)c2c(CC(C(=O)O)C(C)C)c(C(=O)C(C)(C)C)c3cc(OCc4ccc5ccccc5n4)ccn23)cc1 (stereo not drawn) [2-{[1-(2,2-dimethylpropanoyl)-3-[(4-methoxyphenyl)carbonyl]-7-(quinolin-2-ylmethoxy)indolizin-2-yl]methyl}-3-methylbutanoic acid] | 9.00 |
| COc1ccc(C(=O)c2c(CC(C)(C)C(N)=O)c(C(=O)C(C)(C)C)c3cc(OCc4cccc(N)n4)ccn23)cc1 [3-{7-[(6-aminopyridin-2-yl)methoxy]-1-(2,2-dimethylpropanoyl)-3-(4-methoxybenzoyl)indolizin-2-yl}-2,2-dimethylpropanamide] | 8.70 |
| COc1ccc(C(=O)c2c(CC(C(=O)O)C(C)C)c(C(=O)C(C)(C)C)c3cc(OCc4csc(C)n4)ccn23)cc1 (stereo not drawn) [2-({1-(2,2-dimethylpropanoyl)-3-[(4-methoxyphenyl)carbonyl]-7-[(2-methyl-1,3-thiazol-4-yl)methoxy]indolizin-2-yl}methyl)-3-methylbutanoic acid] | 7.89 |
| COc1ccc(C(=O)c2c(CC(C)(C)C(=O)O)c(C(=O)C(C)(C)C)c3cc(OCc4nc5ccccc5s4)ccn23)cc1 | 9.00 |
| Cc1cccc(COc2ccc3c(C(=O)c4ccc(Cl)cc4)c(CC(C)(C)C(=O)O)c(C(=O)C(C)(C)C)n3c2)n1 [3-{1-[(4-chlorophenyl)carbonyl]-3-(2,2-dimethylpropanoyl)-6-[(6-methylpyridin-2-yl)methoxy]indolizin-2-yl}-2,2-dimethylpropanoic acid] | 8.10 |
| CCCC(Cc1c(C(=O)C(C)(C)C)c2cc(OCc3csc(C)n3)ccn2c1C(=O)c1ccc(OC)cc1)C(=O)O (stereo not drawn) [2-({1-(2,2-dimethylpropanoyl)-3-[(4-methoxyphenyl)carbonyl]-7-[(2-methyl-1,3-thiazol-4-yl)methoxy]indolizin-2-yl}methyl)pentanoic acid] | 8.15 |
| COc1ccc(-c2ccc(C(=O)c3c(CC(C)(C)C(=O)O)c(C(=O)C(C)(C)C)c4cc(C(C)C)ccn34)cc2)cn1 | 6.63 |
| CCCC(Cc1c(C(=O)C(C)(C)C)c2cc(OCc3cccc(C)n3)ccn2c1C(=O)c1ccc(Cl)c(Cl)c1)C(=O)O (stereo not drawn) [2-({3-[(3,4-dichlorophenyl)carbonyl]-1-(2,2-dimethylpropanoyl)-7-[(6-methylpyridin-2-yl)methoxy]indolizin-2-yl}methyl)pentanoic acid] | 8.70 |
| CC(C)c1ccn2c(C(=O)N(C)c3ccc(Br)cc3)c(CC(C)(C)C(=O)O)c(C(=O)C(C)(C)C)c2c1 [3-{3-[(4-bromophenyl)(methyl)carbamoyl]-1-(2,2-dimethylpropanoyl)-7-(propan-2-yl)indolizin-2-yl}-2,2-dimethylpropanoic acid] | 6.81 |
| CC(C)(C)C(=O)c1c(CC(C)(C)C(=O)O)c(C(=O)c2ccc(Cl)cc2)n2ccc(OCc3nc4ccccc4s3)cc12 | 8.40 |
| Cc1csc(COc2ccn3c(C(=O)c4ccc(Cl)c(Cl)c4)c(CC(C)(C)C(=O)O)c(C(=O)C(C)(C)C)c3c2)n1 [3-{3-[(3,4-dichlorophenyl)carbonyl]-1-(2,2-dimethylpropanoyl)-7-[(4-methyl-1,3-thiazol-2-yl)methoxy]indolizin-2-yl}-2,2-dimethylpropanoic acid] | 9.00 |
| Cc1ccc(C(=O)c2c(CC(C)(C)C(=O)O)c(C(=O)C(C)(C)C)c3cc(OCc4cccc(C)n4)ccn23)cc1 [3-{1-(2,2-dimethylpropanoyl)-3-[(4-methylphenyl)carbonyl]-7-[(6-methylpyridin-2-yl)methoxy]indolizin-2-yl}-2,2-dimethylpropanoic acid] | 8.52 |
| COc1ccc(C(=O)c2c(CC(C(=O)O)C(C)C)c(C(=O)C(C)(C)C)c3cc(OCc4nc(C)cs4)ccn23)cc1 (stereo not drawn) [2-({1-(2,2-dimethylpropanoyl)-3-[(4-methoxyphenyl)carbonyl]-7-[(4-methyl-1,3-thiazol-2-yl)methoxy]indolizin-2-yl}methyl)-3-methylbutanoic acid] | 8.40 |
| CC(C)(C)C(=O)c1c(CC(C)(C)C(=O)O)c(C(=O)c2ccc(Cl)cc2)n2ccc(OCc3cscn3)cc12 [3-{3-[(4-chlorophenyl)carbonyl]-1-(2,2-dimethylpropanoyl)-7-(1,3-thiazol-4-ylmethoxy)indolizin-2-yl}-2,2-dimethylpropanoic acid] | 6.93 |
